Data from article PMC7384330 (Neuropharmacology, 2018).
“Also recorded” adds a separate entry of the source. Where two headings read alike, the source gives them in different places.

What was measured:
[1] = target: T1, human oxytocin receptor (OXTR) (Homo sapiens, UniProt P30559); test: Fluorescence-based intracellular calcium mobilization assay; format: cell-based
T1 sequence (P30559 1-389): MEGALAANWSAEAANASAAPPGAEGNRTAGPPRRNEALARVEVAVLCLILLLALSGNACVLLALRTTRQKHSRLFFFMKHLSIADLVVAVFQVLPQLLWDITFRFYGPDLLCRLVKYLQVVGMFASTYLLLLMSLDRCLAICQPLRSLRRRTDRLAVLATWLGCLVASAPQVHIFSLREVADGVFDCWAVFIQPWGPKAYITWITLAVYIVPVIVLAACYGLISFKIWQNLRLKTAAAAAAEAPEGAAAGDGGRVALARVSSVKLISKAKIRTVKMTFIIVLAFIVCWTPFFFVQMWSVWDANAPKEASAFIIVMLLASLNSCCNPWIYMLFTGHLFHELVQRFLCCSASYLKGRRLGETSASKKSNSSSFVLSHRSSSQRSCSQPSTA

[2] = target: T2, OXTR (β-arrestin recruitment) (Homo sapiens, UniProt P30559); format: cell-based
T2 sequence (P30559 1-389): T1 sequence (P30559 1-389)

[3] = target: T2, OXTR (β-arrestin recruitment); test: PathHunter eXpress β-Arrestin GPCR Kit, enzyme fragment complementation assay; format: cell-based
human OXTR = target: T3, human OXTR (Homo sapiens, UniProt P30559); test: IP3 accumulation assay; format: cell-based
T3 sequence (P30559 1-389): T1 sequence (P30559 1-389)

[4] = target: T4, human Avpr1b vasopressin receptor (Homo sapiens, UniProt P47901); test: Calcium mobilization assay, CHO-V1b; format: cell-based
T4 sequence (P47901 1-424): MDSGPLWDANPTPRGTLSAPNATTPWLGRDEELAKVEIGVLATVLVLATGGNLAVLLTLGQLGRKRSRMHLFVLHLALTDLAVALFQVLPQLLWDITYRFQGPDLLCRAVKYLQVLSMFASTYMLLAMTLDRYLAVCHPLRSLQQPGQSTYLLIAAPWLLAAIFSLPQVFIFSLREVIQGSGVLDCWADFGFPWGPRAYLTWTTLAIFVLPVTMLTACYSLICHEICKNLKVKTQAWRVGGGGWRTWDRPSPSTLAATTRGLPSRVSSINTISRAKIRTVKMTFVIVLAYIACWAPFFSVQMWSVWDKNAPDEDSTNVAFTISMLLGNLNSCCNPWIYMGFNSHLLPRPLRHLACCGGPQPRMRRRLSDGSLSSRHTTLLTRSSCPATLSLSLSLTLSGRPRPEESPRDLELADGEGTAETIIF

[5] = tested on: human Avpr1a vasopressin receptor; test: Calcium mobilization assay, CHO-V1a; format: cell-based; settings: Supplemental Fig. 1
[6] = tested on: human Avpr2 vasopressin receptor; test: Calcium mobilization assay, CHO-V2; format: cell-based; settings: Supplemental Fig. 1
wild-type CHO cells = test: Calcium response in wild-type CHO cells; format: cell-based; settings: Supplemental Fig. 2
[7] = target: T5, muscarinic acetylcholine receptor M2 (Homo sapiens, UniProt P08172); test: NIMH PDSP GPCR receptor binding screen, M2
T5 sequence (P08172 1-466): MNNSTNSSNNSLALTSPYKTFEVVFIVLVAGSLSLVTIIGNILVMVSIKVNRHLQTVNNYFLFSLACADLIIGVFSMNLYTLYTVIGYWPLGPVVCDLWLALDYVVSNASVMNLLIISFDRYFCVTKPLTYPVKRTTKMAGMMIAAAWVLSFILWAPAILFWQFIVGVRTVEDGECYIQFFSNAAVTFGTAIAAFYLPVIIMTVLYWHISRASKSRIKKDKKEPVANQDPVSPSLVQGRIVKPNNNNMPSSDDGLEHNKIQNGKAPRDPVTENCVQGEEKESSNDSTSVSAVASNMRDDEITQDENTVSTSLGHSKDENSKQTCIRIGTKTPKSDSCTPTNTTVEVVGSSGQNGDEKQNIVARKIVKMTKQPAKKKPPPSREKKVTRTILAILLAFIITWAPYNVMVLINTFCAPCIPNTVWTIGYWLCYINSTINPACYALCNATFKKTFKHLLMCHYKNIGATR

[8] = target: muscarinic acetylcholine receptor M3 (Homo sapiens, UniProt P20309); test: NIMH PDSP GPCR receptor binding screen, M3
[9] = target: T6, muscarinic acetylcholine receptor M4 (Homo sapiens, UniProt P08173); test: NIMH PDSP GPCR receptor binding screen, M4
T6 sequence (P08173 1-479): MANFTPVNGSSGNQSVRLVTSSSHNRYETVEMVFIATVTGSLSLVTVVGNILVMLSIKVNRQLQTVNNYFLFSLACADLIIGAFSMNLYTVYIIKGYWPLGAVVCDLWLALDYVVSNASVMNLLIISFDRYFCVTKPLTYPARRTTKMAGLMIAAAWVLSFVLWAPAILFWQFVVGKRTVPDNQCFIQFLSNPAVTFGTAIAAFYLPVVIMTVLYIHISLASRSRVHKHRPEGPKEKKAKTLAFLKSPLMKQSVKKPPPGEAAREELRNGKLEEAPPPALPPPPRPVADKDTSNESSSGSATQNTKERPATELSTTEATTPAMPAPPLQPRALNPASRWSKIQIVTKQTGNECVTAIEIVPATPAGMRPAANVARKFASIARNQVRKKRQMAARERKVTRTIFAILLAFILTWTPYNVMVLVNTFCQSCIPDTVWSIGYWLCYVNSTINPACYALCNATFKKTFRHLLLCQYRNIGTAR

other human receptors = test: NIMH PDSP GPCR receptor binding screen, other receptors; settings: complete set of GPCRs available through NIMH PDSP
BALB/cByJ mice [10] = test: Three-chamber social choice test after subchronic regimen; format: in vivo, mouse
BALB/cByJ mice [11] = test: Marble-burying assay, BALB/cByJ; format: in vivo, mouse; settings: for digging responses in marble-burying assay, oxytocin metabolites: acute IP, Supplemental Fig. 3B, C
OXTR [12] = settings: ref Pitt et al., 2004, cited from earlier work
OXTR [13] = settings: ref Pitt et al., 2004, cited from earlier work; remark: listed apart in the source
[14] = target: Avpr1a vasopressin receptor; settings: ref Frantz et al., 2010, cited from earlier work
[15] = target: T7, muscarinic acetylcholine receptor M5 (Homo sapiens, UniProt P08912); test: NIMH PDSP GPCR receptor binding screen, M5
T7 sequence (P08912 1-532): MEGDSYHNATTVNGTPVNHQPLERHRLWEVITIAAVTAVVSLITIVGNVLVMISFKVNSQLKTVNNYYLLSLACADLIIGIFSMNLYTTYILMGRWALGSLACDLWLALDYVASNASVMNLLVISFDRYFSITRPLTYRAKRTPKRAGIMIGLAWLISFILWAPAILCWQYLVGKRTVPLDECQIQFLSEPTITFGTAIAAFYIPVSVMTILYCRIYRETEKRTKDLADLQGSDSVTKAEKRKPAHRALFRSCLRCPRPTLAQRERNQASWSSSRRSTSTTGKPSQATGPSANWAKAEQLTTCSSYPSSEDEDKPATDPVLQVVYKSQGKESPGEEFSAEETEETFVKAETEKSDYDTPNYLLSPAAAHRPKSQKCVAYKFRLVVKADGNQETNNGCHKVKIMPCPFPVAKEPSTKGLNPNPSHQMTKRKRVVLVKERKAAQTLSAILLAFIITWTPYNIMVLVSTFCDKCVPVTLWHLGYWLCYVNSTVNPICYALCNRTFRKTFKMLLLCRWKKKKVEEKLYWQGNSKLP

rodents = settings: ref Ring and colleagues 2006, 2010; cited from earlier work
rats [16] = settings: ref de Wied et al., 1987; cited from earlier work
BALB/cByJ mice [17] = test: Open field test for activity and exploration; format: in vivo, mouse
rats [18] = settings: dependent on dose; ref Popik et al., 1996; cited from earlier work

muscarinic acetylcholine receptor M3, sequence (P20309 whole entry): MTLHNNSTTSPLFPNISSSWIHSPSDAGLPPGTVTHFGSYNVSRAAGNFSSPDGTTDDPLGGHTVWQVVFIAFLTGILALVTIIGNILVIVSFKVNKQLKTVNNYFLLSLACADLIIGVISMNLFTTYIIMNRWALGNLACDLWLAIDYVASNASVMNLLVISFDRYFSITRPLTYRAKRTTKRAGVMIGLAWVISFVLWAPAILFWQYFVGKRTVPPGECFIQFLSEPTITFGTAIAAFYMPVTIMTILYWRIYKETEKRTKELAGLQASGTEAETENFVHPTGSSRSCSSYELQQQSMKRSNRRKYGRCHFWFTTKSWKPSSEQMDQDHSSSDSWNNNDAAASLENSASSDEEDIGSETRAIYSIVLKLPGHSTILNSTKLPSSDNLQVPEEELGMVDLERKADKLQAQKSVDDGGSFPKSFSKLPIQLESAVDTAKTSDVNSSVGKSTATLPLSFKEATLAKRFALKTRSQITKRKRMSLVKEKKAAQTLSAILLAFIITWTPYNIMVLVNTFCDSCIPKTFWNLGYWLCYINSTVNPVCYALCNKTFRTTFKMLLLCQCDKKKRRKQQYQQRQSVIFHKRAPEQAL

Cc1cc(C(=O)N2Cc3cnn(C)c3Nc3ccccc32)ccc1CNC(=O)N1CCC[C@H]1C(=S)N1CCCN(C)CC1 [TC-OT-39, (2S)-N-[[4-[(4,10-Dihydro-1-methylpyrazolo[3,4-b][1,5]benzodiazepin-5(1H)-yl)carbonyl]-2-methylphenyl]methyl]-2-[(hexahydro-4-methyl-1H-1,4-diazepin-1-yl)thioxomethyl]-1-pyrrolidinecarboxamide]
Efficacy (% OXT Response), FLIPR TETRA Ca2+ Release ([1]; Table 1, oxytocin response as 100%): 102% | agonist character at human OXTR ([1]; calcium mobilization / Gq signaling): moderately potent full agonist at the human OXTR; also recorded: efficacy comparable to that of oxytocin for Gq signaling | EC50 [2]: 310 ± 260 nM | Efficacy (% OXT Response), DiscoveRx β-Arrestin ([2]; oxytocin response as 100%): 51 ± 6% | EC50 [3]: 480 nM | agonist character for β-arrestin recruitment ([3]; enzyme fragment complementation assay, CHO cells): reduced efficacy for β-arrestin recruitment; also recorded: only a partial agonist of β-arrestin recruitment | Efficacy (% OXT Response), DiscoveRx Express β-Arrestin ([3]; oxytocin response as 100%, run as single points only): 48% | EC50 (human OXTR): 890 ± 90 nM | Emax (human OXTR; read-out: maximum efficacy, IP3 accumulation): 67 ± 4% | EC50 [4]: 4300 ± 70 nM | efficacy at human Avpr1b ([4]; compared to vasopressin): 74 ± 2% | activation of human Avpr1a ([5]; CHO-V1a): did not activate the human Avpr1a | inverse agonism at Avpr1a [5]: appears to be an inverse agonist at Avpr1a | activation of human Avpr2 [6]: did not activate the human Avpr1a or Avpr2 receptors | response of wild-type CHO cells (wild-type CHO cells): did not induce any response | Ki [7]: > 1000 nM | Ki [8]: > 1000 nM | Ki [9]: > 1000 nM | binding to other human receptors (other human receptors): no significant binding to other human receptors | emergence of sociability at 14 days, TC-OT-39 (BALB/cByJ mice [10]; 30 and 50 mg/kg IP, subchronic, 14 days after final injection): no evidence for the emergence of increased sociability at the 14-day time point | marble burying, BALB/cByJ, 50 mg/kg (BALB/cByJ mice [11]; TC-OT-39 50 mg/kg IP, 50 min before test, F(1,14)=6.18, p=0.0261): comparable decreases in marble burying | sedative-like effects, 75 mg/kg (BALB/cByJ mice [11]; TC-OT-39 75 mg/kg IP, acute, not further tested): overt sedative-like effects | EC50 (OXTR [12]; read-out: EC50, OXTR gene reporter assay): 33 nM | agonist character, OXTR gene reporter assay (OXTR [12]): full agonist | EC50 (OXTR [13]; read-out: EC50, OXTR IP3 accumulation): 667 nM | agonist character, OXTR IP3 accumulation (OXTR [13]): partial agonist | Ki ([14]; read-out: KI at Avpr1a, antagonist): 330 nM | character at Avpr1a [14]: antagonist of the Avpr1a vasopressin receptor | Ki [15]: > 1000 nM

Cc1cc(C(=O)N2Cc3cnn(C)c3Nc3ccccc32)ccc1CNC(=O)N1CCN(Cc2cc(O)cc(O)c2)CC1 [WAY-267464]
anxiolytic-like effects, rodent assays (rodents): comparable anxiolytic-like effects in rodent assays

Asn-Cyt-Pro-Leu-Gly-NH2 [OT(5-9)]
sociability, OT(5-9) 1 mg/kg (BALB/cByJ mice [10]; 1 mg/kg IP, subchronic, Supplemental Fig. 4D, E): failed to reverse social deficits | sociability, OT(5-9) 2.0 mg/kg (BALB/cByJ mice [10]; 2.0 mg/kg IP, subchronic, Supplemental Fig. 5): failed to reveal prosocial efficacy | digging responses in marble-burying assay, oxytocin metabolites (BALB/cByJ mice [11]; 50 min before test): neither OT(4-9) nor OT(5-9) altered digging responses in the marble-burying assay | potency on avoidance learning relative to oxytocin (rats [16]): greater potency than oxytocin itself on specific aspects of avoidance learning in rats

pGlu-Asn-Cyt-Pro-Leu-Gly-NH2 [OT(4-9)]
entries, OT(4-9) 1.0 mg/kg (BALB/cByJ mice [10]; 1.0 mg/kg IP, subchronic, n=8): without changing entries during the test | proximity to stranger mouse, OT(4-9) 1.0 mg/kg (BALB/cByJ mice [10]; 1.0 mg/kg IP, subchronic, n=8, main effect of side F(1,14)=6.84, p=0.0204): significant social preference for proximity to the stranger mouse | time in side with stranger mouse, OT(4-9) 2.0 mg/kg, 24 hr and 12 days (BALB/cByJ mice [10]; 2.0 mg/kg IP, subchronic, 24-hr test F(1,21)=7.3, p=0.0133, 12-day test F(1,21)=4.85, p=0.039, n=8): significant preference for spending more time in the side with the stranger mouse at both time points | proximity to stranger mouse, OT(4-9) 2.0 mg/kg, 12 days (BALB/cByJ mice [10]; 2.0 mg/kg IP, subchronic, 12 days, F(1,21)=7.02, p=0.015, n=8): significant preference for proximity to the stranger mouse 12 days following the final injection | prosocial efficacy compared with oxytocin (BALB/cByJ mice [10]; OT(4-9) 2.0 mg/kg vs oxytocin 1.0 mg/kg, subchronic): prosocial efficacy similar to oxytocin | dose dependence of sociability, OT(4-9) (BALB/cByJ mice [10]; subchronic IP): only the higher doses (1.0 and 2.0 mg/kg) leading to increased sociability | entries during 3-chamber test (discussion) (BALB/cByJ mice [10]; subchronic IP): neither oxytocin nor OT(4-9) led to alterations in entries during the 3-chamber test | digging responses in marble-burying assay, oxytocin metabolites (BALB/cByJ mice [11]; 50 min before test): neither OT(4-9) nor OT(5-9) altered digging responses in the marble-burying assay | activity or exploration in open field, OT(4-9) (BALB/cByJ mice [17]; OT(4-9) 2.0 mg/kg IP immediately before 2-hr test, versus vehicle, n=9): no significant effects on activity or exploration in the open field | anxiolytic effects, acute OT(4-9) (BALB/cByJ mice [17]; acute, marble-burying assay and open field tests): lacked anxiolytic effects in the marble-burying assay and open field tests | potency on avoidance learning relative to oxytocin (rats [16]): greater potency than oxytocin itself on specific aspects of avoidance learning in rats | social recognition (rats [18]): oxytocin-like effects on social recognition in rats, dependent on dose
